Measured values published in patent publication US20250326713A1, “INHIBITORS OF MsbA AS ANTIBIOTICS, PHARMACEUTICAL COMPOSITIONS, AND USES THEREOF” (priority 2022, published 2025).
Values after ≈ are worked out from the molar mass of the structure shown.

Tested on: various strains of bacteria
Test: Antimicrobial potency: bacterial growth inhibition by OD600 (Antibacterial assay 1, MITC95)
Format: cell-based, A. baumannii
Conditions: lowest concentration giving >95% growth inhibition, CAMHB, 18-22 h
Description: The concentrations of compounds required to inhibit the growth of various strains of bacteria were determined in an assay that assessed bacterial growth by measuring optical density at 600 nm (OD600). Test articles were dissolved in 100% DMSO and serially diluted two-fold from their maximal concentration in 100% DMSO. Forty-nine μl of bacterial inoculum (at approx. 2×10^5 cfu/mL in CAMHB) were put into wells of an assay plate. One μl of compound or DMSO was transferred from the source plate to the assay plate. The completed assay plates were then incubated at 35+2degC for 18-22 h. Bacterial growth was measured by reading OD600 on a spectrophotometer. Data analysis calculates the lowest concentration of compound which results in >95% growth inhibition (minimum inhibitory threshold concentration 95%, MITC95).

Row | Compound | MIC (Acinetobacter baumannii, 20 h) [µM] | MIC [µM]
1 | O=C(O)Cc1cc(CN2CC(Oc3ccc(NS(=O)(=O)c4cnn(-c5ccc(Cl)cc5)c4)c(CC(=O)O)c3)C2)ccc1NS(=O)(=O)c1cnn(-c2ccc(Cl)cc2)c1 [Compound 1, 2-(5-((1-(3-(carboxymethyl)-4-(1-(4-chlorophenyl)-1H-pyrazole-4-sulfonamido)benzyl)azetidin-3-yl)oxy)-2-(1-(4-chlorophenyl)-1H-pyrazole-4-sulfonamido)phenyl) acetic acid] | 0.277 (≈ 0.24 µg/mL) | –
2 | O=C(O)c1cc(CN2CC(Oc3ccc(NS(=O)(=O)c4cnn(-c5ccc(Cl)cn5)c4)c(C(=O)O)c3)C2)ccc1NS(=O)(=O)c1cnn(-c2ccc(Cl)cn2)c1 [Compound 121] | 0.277 (≈ 0.233 µg/mL) | –
3 | O=C(O)c1cc(CN2CC(Oc3ccc(NS(=O)(=O)c4ccc(-c5ccc(Cl)cc5)cc4)c(C(=O)O)c3)C2)ccc1NS(=O)(=O)c1ccc(-c2ccc(Cl)cc2)cc1 [Compound 97, 5-((1-(3-carboxy-4-((4′-chloro-(1,l′-biphenyl))-4-sulfonamido)benzyl)azetidin-3-yl)oxy)-2-((4′-chloro-(1,l′-biphenyl))-4-sulfonamido)benzoic acid] | 0.0978 (≈ 0.084 µg/mL) | –
4 | O=C(O)Cc1cc(CN2CC(Oc3ccc(NS(=O)(=O)c4cnn(-c5ccc(Cl)cc5)c4)c(C(=O)O)c3)C2)ccc1NS(=O)(=O)c1cnn(-c2ccc(Cl)cc2)c1 [Compound 2, 5-((1-(3-(carboxymethyl)-4-((1-(4-chlorophenyl)-1H-pyrazole)-4-sulfonamido)-benzyl)azetidin-3-yl)oxy)-2-((1-(4-chlorophenyl)-1H-pyrazole)-4-sulfonamido)benzoic acid] | 0.0692 (≈ 0.059 µg/mL) | –
5 | O=C(NCc1ccc(Cl)cc1)C(=O)Nc1ccc(OC2CN(Cc3ccc(NS(=O)(=O)CCc4ccc(Cl)cc4)c(C(=O)O)c3)C2)cc1C(=O)O [Compound 61] | 0.196 (≈ 0.148 µg/mL) | –
6 | O=C(O)c1cc(CN2CC(Oc3ccc(NS(=O)(=O)CCc4ccc(Cl)cc4)c(C(=O)O)c3)C2)ccc1NS(=O)(=O)CCc1ccc(Cl)cc1 [Compound 79] | 0.0978 (≈ 0.0746 µg/mL) | –
7 | O=C(O)c1cc(CN[C@H]2C[C@@H](COc3ccc(NS(=O)(=O)c4ccc(-c5ccc(Cl)cc5)s4)c(C(=O)O)c3)C2)ccc1NS(=O)(=O)CCc1ccc(Cl)cc1 [Compound 94] | 0.0086 (≈ 0.00727 µg/mL) | –
8 | O=C(O)c1cc(OC2CN(Cc3ccc(NS(=O)(=O)c4ccc(-c5ccccc5)s4)c(C(=O)O)c3)C2)ccc1NS(=O)(=O)CCc1ccc(F)cc1 [Compound 86] | 0.0245 (≈ 0.0188 µg/mL) | –
9 | O=C(O)c1cc(OC2CN(Cc3ccc(NS(=O)(=O)c4ccc(-c5ccc(Cl)cc5)cc4)c(C(=O)O)c3)C2)ccc1NS(=O)(=O)CCc1ccc(F)cc1 [Compound 81, 5-((3-(3-carboxy-4-((2-(4-fluorophenyl)ethyl)sulfonamido)phenoxy)azetidin-1-yl)methyl)-2-((4′-chloro-[1, l′-biphenyl])-4-sulfonamido)benzoic acid] | – | 0.0122 (≈ 0.00969 µg/mL)
10 | O=C(O)c1cc(COC2CC(OCc3ccc(NS(=O)(=O)c4ccc(-c5ccc(Cl)cc5)cc4)c(C(=O)O)c3)C2)ccc1NS(=O)(=O)CCc1ccc(Cl)cc1 (centres unmarked) [Compound 17] | < 0.0488 | –
11 | O=C(O)c1cc(OC[C@H]2CC[C@@H](COc3ccc(NS(=O)(=O)CCc4ccc(Cl)cc4)c(C(=O)O)c3)O2)ccc1NS(=O)(=O)CCc1ccc(Cl)cc1 [Compound 21] | 0.0489 (≈ 0.0395 µg/mL) | –
12 | O=C(O)c1cc(COC2CC(OCc3ccc(NS(=O)(=O)c4cnn(-c5ccc(F)cc5)c4)c(C(=O)O)c3)C2)ccc1NS(=O)(=O)c1cnn(-c2ccc(F)cc2)c1 (centres unmarked) [Compound 13] | – | 0.196 (≈ 0.164 µg/mL)
13 | O=C(NCc1ccc(Cl)cc1)C(=O)Nc1ccc(OC2CN(Cc3ccc(NS(=O)(=O)c4cc(-c5ccc(F)cc5)ns4)c(C(=O)O)c3)C2)cc1C(=O)O [Compound 59] | 0.0245 (≈ 0.0195 µg/mL) | –
14 | O=C(O)c1cc(CN2CC(Oc3ccc(NS(=O)(=O)c4ccc(-c5cccc(Cl)c5)cc4)c(C(=O)O)c3)C2)ccc1NS(=O)(=O)CCc1ccc(Cl)cc1 [Compound 101] | 0.0245 (≈ 0.0199 µg/mL) | –

More lines, main results first:

Row | MIC (Acinetobacter baumannii, 20 h) [µM] | Compound | MIC [µM]
15 | 0.277 (≈ 0.238 µg/mL) | O=C(O)c1cc(CNC2CC(CNc3ccc(NS(=O)(=O)c4cnn(-c5ccc(F)cc5)c4)c(C(=O)O)c3)C2)ccc1NS(=O)(=O)c1ccc(-c2ccc(Cl)cc2)cc1 (centres unmarked) [Compound 30] | –
16 | 0.391 (≈ 0.321 µg/mL) | O=C(O)c1cc(COC2CN(Cc3ccc(NS(=O)(=O)c4cnn(-c5ccc(F)cc5)c4)c(C(=O)O)c3)C2)ccc1NS(=O)(=O)c1cnn(-c2ccc(F)cc2)c1 [Compound 38] | –
17 | 0.155 (≈ 0.129 µg/mL) | O=C(O)c1cc(CNC2CC(CNc3ccc(NS(=O)(=O)c4cnn(-c5ccc(F)cc5)c4)c(C(=O)O)c3)C2)ccc1NS(=O)(=O)c1cnn(-c2ccc(F)cc2)c1 (stereo not drawn) [Compound 25, cis-5-(((3-((3-carboxy-4-((1-(4-fluorophenyl)-1H-pyrazole)-4-sulfonamido)benzyl)amino)cyclobutyl)methyl)amino)-2-((1-(4-fluorophenyl)-1H-pyrazole)-4-sulfonamido)benzoic acid] | –
18 | 0.0978 (≈ 0.0839 µg/mL) | CC1(Oc2ccc(NS(=O)(=O)N3CCOC(c4ccc(F)cc4)C3)c(C(=O)O)c2)CN(Cc2ccc(NS(=O)(=O)N3CCOC(c4ccc(F)cc4)C3)c(C(=O)O)c2)C1 (centres unmarked) [Compound 45] | –
19 | 0.00611 (≈ 0.00517 µg/mL) | O=C(O)c1cc(CN[C@H]2C[C@@H](COc3ccc(NS(=O)(=O)c4cnc(-c5ccc(Cl)cc5)s4)c(C(=O)O)c3)C2)ccc1NS(=O)(=O)CCc1ccc(Cl)cc1 [Compound 93] | –
20 | 0.0489 (≈ 0.0422 µg/mL) | Cn1nc(-c2ccc(F)cc2)cc1S(=O)(=O)Nc1ccc(CNC2CC(CNc3ccc(NS(=O)(=O)c4cnn(-c5ccc(Cl)cc5)c4)c(C(=O)O)c3)C2)cc1C(=O)O (centres unmarked) [Compound 34] | –
21 | 0.0122 (≈ 0.0101 µg/mL) | O=C(O)c1cc(CN2CC(Oc3ccc(NS(=O)(=O)c4cnn(-c5ccc(Cl)cc5)c4)c(C(=O)O)c3)C2)ccc1NS(=O)(=O)CCCCc1ccc(Cl)cc1 [Compound 41] | –
22 | 0.553 (≈ 0.488 µg/mL) | CS(=O)(=O)NC(=O)c1cc(OC2CN(Cc3ccc(NS(=O)(=O)c4cnn(-c5ccc(F)cc5)c4)c(C(=O)O)c3)C2)ccc1NS(=O)(=O)c1cnn(-c2ccc(F)cc2)c1 [Compound 52, 2-((1-(4-fluorophenyl)-1H-pyrazole)-4-sulfonamido)-5-((3-(4-((1-(4-fluorophenyl)-1H-pyrazole)-4-sulfonamido)-3-((methylsulfonyl)carbamoyl)phenoxy)azetidin-1-yl)methyl)benzoic acid] | –
23 | 0.0489 (≈ 0.0417 µg/mL) | O=C(O)c1cc(NCC2CC(NCc3ccc(NS(=O)(=O)N4CCOC(c5ccc(F)cc5)C4)c(C(=O)O)c3)C2)ccc1NS(=O)(=O)c1cnn(-c2ccc(F)cc2)c1 (centres unmarked) [Compound 36] | –
